One test has as its target T1, PDE5 (Homo sapiens, UniProt O76074).
T1 construct: made in house; host or cells: Saccharomyces cerevisiae BJ2-54
The test is described as follows: Inhibition of PDE5. Format: biochemical. As for the experimental part:
(§1) Recombinant production of human PDE1B, PDE2, PDE4A, PDE4B, PDE4C, PDE4D, PDE5, and PDE7 was carried out similarly to that described in Example 7 of U.S. Pat. No. 5,702,936, incorporated herein by reference, except that the yeast transformation vector employed, which is derived from the basic ADH2 plasmid described in Price et al., Methods in Enzymology, 185, pp. 308–318 (1990), incorporated yeast ADH2 promoter and terminator sequences and the Saccharomyces cerevisiae host was the protease-deficient strain BJ2–54 deposited on Aug. 31, 1998 with the American Type Culture Collection, Manassas, Va., under accession number ATCC 74465. Transformed host cells were grown in 2×SC-leu medium, pH 6.2, with trace metals, and vitamins. After 24 hours, YEP medium-containing glycerol was added to a final concentration of 2×YET/3% glycerol. […]
(§2) Phosphodiesterase activity of the preparations was determined as follows. […] The [32P]5′-AMP or [32P]5′-GMP then was quantitatively converted to free [32P]phosphate and unlabeled adenosine or guanosine by the action of snake venom 5′-nucleotidase. […] PDE enzyme was present in quantities that yield <30% total hydrolysis of substrate (linear assay conditions). […] After centrifugation (750×g for 3 minutes) to sediment the charcoal, a sample of the supernatant was taken for radioactivity determination in a scintillation counter and the PDE activity was calculated. […]

For another test, the target named is T2, PDE1A (Homo sapiens, UniProt P54750).
T2 construct: Plasmid pBB-PDE1A3/6 contained the complete open reading frame of PDE1A3; made in house; host or cells: Sf9 (baculovirus)
The test can be described thus: Inhibition of PDE1A. In kind it is biochemical.

The target of another test is T3, PDE3A (Homo sapiens, UniProt Q14432).
T3 construct: Plasmid pBB-PDE3A contained the complete open reading frame of PDE3A; made in house; host or cells: Sf9 (baculovirus)
The test can be described thus: Inhibition of PDE3A. Format: biochemical.

The next test deals with T4, PDE1B (Homo sapiens, UniProt Q01064).
T4 construct: made in house; host or cells: Saccharomyces cerevisiae BJ2-54
The test is described as follows: Inhibition of PDE1B. Format: biochemical.

For another test, the system named is serum TNFα. The test is described as follows: Combined mouse endotoxin-stimulated TNFα release assay (serum TNFα). Format: in vivo. To be noted: female Balb/c mice, i.p., LPS model. On the procedure: The purpose of this study was to determine the efficacy of PDE4 inhibitors in vivo in an LPS mouse model together with a determination with respect to central nervous system (CNS) side-effects manifested by a decrease in spontaneous mobility.
The test animals were female Balb/c mice, having an average weight of about 20 g. The PDE4 inhibitors, formulated in 30% Cremophor® EL, were administered via intraperitoneal (i.p.) injections at doses of 0.1, 1.0, 10.0, and 100 mg/kg. Individual dose volumes (about 150 μL) were adjusted based on the body weights measured. One hour later, 5 mg/kg LPS in a final volume of 200 μL was injected via the tail vein to each animal. Ninety minutes following the LPS treatment, the animals were bled and serum samples were collected before being stored at −70° C. until assayed.
For efficacy determination, the serum samples were diluted two-fold and TNFα levels were determined using the CYTOSCREEN® Immunoassay Kit (Biosource International). The data were averaged between triplicate sample subjects for each of the tested compounds.

Another test addresses T5, PDE7 (Homo sapiens, UniProt Q13946).
T5 construct: made in house; host or cells: Saccharomyces cerevisiae BJ2-54
The test is described as follows: Inhibition of PDE7. Format: biochemical. As for the experimental part: as §1, §2

T5 sequence (Q13946 whole entry): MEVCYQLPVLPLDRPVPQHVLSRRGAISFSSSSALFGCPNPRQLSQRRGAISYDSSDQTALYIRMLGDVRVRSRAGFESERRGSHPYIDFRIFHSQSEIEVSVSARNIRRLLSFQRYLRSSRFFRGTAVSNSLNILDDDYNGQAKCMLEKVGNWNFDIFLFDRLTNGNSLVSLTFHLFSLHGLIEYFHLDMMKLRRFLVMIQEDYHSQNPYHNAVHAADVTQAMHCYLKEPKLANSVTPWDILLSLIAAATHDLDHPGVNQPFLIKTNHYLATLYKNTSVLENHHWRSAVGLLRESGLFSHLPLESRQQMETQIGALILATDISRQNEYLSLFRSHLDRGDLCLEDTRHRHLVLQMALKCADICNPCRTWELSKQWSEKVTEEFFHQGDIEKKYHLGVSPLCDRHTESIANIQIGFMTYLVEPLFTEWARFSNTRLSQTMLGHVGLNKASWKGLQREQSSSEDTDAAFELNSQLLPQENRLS
T3 sequence (Q14432 whole entry): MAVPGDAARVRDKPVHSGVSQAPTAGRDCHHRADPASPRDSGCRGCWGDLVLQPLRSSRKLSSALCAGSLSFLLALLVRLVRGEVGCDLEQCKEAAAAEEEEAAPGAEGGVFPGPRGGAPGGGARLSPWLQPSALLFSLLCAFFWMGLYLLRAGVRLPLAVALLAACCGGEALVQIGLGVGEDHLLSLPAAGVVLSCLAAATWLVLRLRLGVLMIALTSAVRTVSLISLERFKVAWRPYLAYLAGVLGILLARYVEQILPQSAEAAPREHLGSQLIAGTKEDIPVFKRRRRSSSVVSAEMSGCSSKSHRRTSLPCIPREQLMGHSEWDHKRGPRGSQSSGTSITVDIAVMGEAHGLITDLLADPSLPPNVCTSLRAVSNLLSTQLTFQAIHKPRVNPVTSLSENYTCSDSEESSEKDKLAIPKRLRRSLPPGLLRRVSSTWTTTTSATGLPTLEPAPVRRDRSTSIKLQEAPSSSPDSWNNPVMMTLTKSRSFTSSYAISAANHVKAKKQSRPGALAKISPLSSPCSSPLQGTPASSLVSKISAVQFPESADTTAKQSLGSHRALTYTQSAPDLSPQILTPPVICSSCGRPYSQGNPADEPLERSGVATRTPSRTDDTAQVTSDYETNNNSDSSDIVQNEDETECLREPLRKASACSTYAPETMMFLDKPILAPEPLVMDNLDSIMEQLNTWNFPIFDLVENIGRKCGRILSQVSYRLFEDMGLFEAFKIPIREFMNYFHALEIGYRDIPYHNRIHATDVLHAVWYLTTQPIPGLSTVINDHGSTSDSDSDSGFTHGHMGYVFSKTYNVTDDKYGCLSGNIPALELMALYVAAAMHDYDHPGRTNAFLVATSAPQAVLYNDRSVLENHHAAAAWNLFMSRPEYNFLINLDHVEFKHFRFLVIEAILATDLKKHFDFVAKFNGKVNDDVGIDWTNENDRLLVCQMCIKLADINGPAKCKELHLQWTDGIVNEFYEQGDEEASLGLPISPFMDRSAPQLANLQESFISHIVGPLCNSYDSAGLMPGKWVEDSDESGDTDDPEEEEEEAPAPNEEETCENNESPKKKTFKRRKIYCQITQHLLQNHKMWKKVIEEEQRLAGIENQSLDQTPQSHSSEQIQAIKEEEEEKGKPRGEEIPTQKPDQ

For the compound `CCOC(=O)c1c(C)nn(-c2cccc([N+](=O)[O-])c2)c1C` [Example 2, 3,5-dimethyl-1-(3-nitrophenyl)-1H-pyrazole-4-carboxylic acid ethyl ester], the IC50 on PDE5 stood at 25.6 µM; against PDE1A it was 25.1 µM; against PDE3A, 137 µM; at PDE1B it was 25.7 µM; on PDE7, 39 µM. Also, the “% TNFQ Inhibition” value in the test with serum TNFα (10 mg/kg) came to 70%; with serum TNFα (100 mg/kg) it was 100%.

In general, IC50 refers to the point on the concentration scale where inhibition reaches its midpoint. Lower therefore signals higher potency.
